Assay type in all cases: physicochemical
A short description of data set [1]: Hydrogelation conditions: lowest concentration to gel water at specific pH. On the set-up: key to pH (hydrogelation condition): —: unable to form hydrogel under tested conditions. The following applies: for pH (to form a hydrogel): azobenzene substituted bio-active short peptides. The protocol: Preparation of Hydrogels. A homogeneous solution of azobenzene-substituted short peptides was prepared in a glass vial via pH adjustment and heating. Upon cooling to room temperature, a hydrogel formed for Azo-Gln-Phe-Ala; Azo-Lys-Phe-Ala; Azo-Leu- Phe-Ala; Azo-D-Lys-D-Phe-D-Ala; and Azo-Arg-Phe-Ala. However, Azo-Lys-D-Phe-D-Ala and Azo-D-Lys-Phe-Ala, sonification was necessary to facilitate the hydrogelation. Hydrogels of Azo-Ser-Phe-Ala; Azo-Gln-Tyr-Ala; Azo-Glu-Tyr-Ala; and Azo-Glu-Phe-Ala were prepared by acidifying the basic solution to the pH shown in Table 1.
Test on pH and salt effects on gelation properties. pH effect: Azo-dipeptides were mixed with a small quality of water and the mixture were adjusted to the desired pH with 1M HCl or NaOH, then heated to about 80-90° C. to obtain a clear solution. A yellow hydrogel formed upon cooling to room temperature. The lowest concentration for hydrogelation at a specific pH was obtained by successive dilution of the hydrogel using water, at the same pH that of the hydrogelation, to the point when hydrogel could not form.

The nature of data set [2]: Temperature for gel to solution phase transition. To be noted: for T (° C.): temperature for gel to solution phase transition: azobenzene substituted tripeptide hydrogels.
Data set [3] in a line: Photo-response tests on the hydrogels (UV irradiation). The following applies: for tinit(min): time needed for initial collapse of the gel upon UV irradiation: high pressure mercury lamp (500 w); for photo-response of the gel upon UV irradiation (in words): Azo-Glu-Phe-Ala: even after 5 hours of UV-irradiation; for total irradiation time needed for the gel to begin to collapse (tinit): UV irradiation (365 nm), Azo-Lys-Phe-Ala: partial phase transition. Also noted: key to tinit(min): time needed for initial collapse of the gel upon UV irradiation: —: no obvious change upon UV irradiation. On the procedure: (§1) Photo-response tests on the hydrogels. The light source for the UV irradiation was a high pressure mercury lamp (500 w) with a filter to cut off visible light. A control experiment was performed in parallel using the same hydrogel in a tin foil covered glass vial to exclude the possibility of response induced by any external stimulus other than light irradiation. The photo-response of the hydrogels was confirmed by observation of the gel to solution phase change of the sample under irradiation, but not on the sample of negative control. In one example, ^1H NMR of Azo-Lys-D-Ala-D-Ala in d-MeOH was used to confirm that after UV irradiation for 2 minutes 11% of the compound was in the cis-configuration, and after 10 minutes, 51% was in the cis-configuration.

A short description of data set [4]: Rheology test on the hydrogel before and after UV irradiation. On the procedure:
Rheology test on the hydrogel before and after UV irradiation. All rheological measurements were performed using an ARES-G2 Rheometer with a cone and a plate (25 mm diameter plate and 0.0999 rad cone angle), and a gap opening between the cone and the plate of 0.0282 mm. The dynamic strain sweep test was carried out at 6.282 rad/s, and then dynamic frequency sweep test was investigated at critical strain, which was determined from storage-strain profile.

A short description of data set [5]: Salt effect on gelation properties. The following applies: buffer of higher concentration of Na2HPO4/NaH2PO4; FIG. 1B. The protocol: Salt effect: Buffers at different pHs (5 and 6) and different concentrations (0.05M, 0.1M, 0.2M and 0.5M) were prepared by mixing Na2HPO4 and NaH2PO4 with different concentration. The azo-dipeptides were mixed with a small quality of buffer and heated to about 80-90° C. to obtain a clear solution. Yellow hydrogels formed upon cooling to room temperature. The lowest concentration for hydrogelation at specific pH was obtained by successive dilution of the hydrogel by the buffer with the same concentration of salt to the point when the hydrogel no longer formed.

The nature of data set [6]: 1H NMR determination of cis-configuration after UV irradiation. To be noted: 1H NMR in d-MeOH. The protocol:
as §1

[7] abbreviates: azobenzene substituted dipeptides.
Setting [8] is: azobenzene substituted tripeptides, pH at which the lowest gelling concentration applies.

Azo = N-terminal azobenzene

On to Azo-Arg-Lys, for which, in data set [1] (setting [7]), the “pH (hydrogelation condition)” value is given as “—”.

For the substance Azo-VYGGG, in data set [1], the “pH (to form a hydrogel)” value is reported as 2.8.

With Azo-Ala-Phe, the “pH (hydrogelation condition)” value in data set [1] (setting [7]) turned out to be 9.5.

In the case of Azo-Gln-Tyr-Ala, the “T (° C.): temperature for gel to solution phase transition” value (from here on “T (° C.): temperature for gel”) in data set [2] turned out to be 81 °C. In addition, the “tinit(min): time needed for initial collapse of the gel upon UV irradiation” value (from here on “tinit(min): time needed”) in data set [3] is on record as “—”. In data set [1] (setting [8]), the “pH (hydrogelation condition)” value is on record as 3.1.

On to Azo-Glu-Phe, for which, in data set [1] (setting [7]), the “pH (hydrogelation condition)” value was 2.5.

As for Azo-Gln-Gln, the “pH (hydrogelation condition)” value in data set [1] (setting [7]) is recorded as “—^b”.

On to Azo-Lys-D-Phe-D-Ala, for which, in data set [4] (dynamic frequency sweep test, FIG. 4B), the “decrease in the storage modulus of the hydrogel after UV irradiation” value was “greater than 100 times”. In data set [4] (dynamic strain sweep test, FIG. 4A), the “storage modulus of the hydrogel before UV irradiation relative to after UV irradiation” value stood at 70 times. In data set [2], the “temperature at which the gel turned into a solution upon heating” value was found to be 42 °C and the “T (° C.): temperature for gel” value was 42 °C. Moreover, in data set [3], the “photo-response of the gel upon UV irradiation (in words)” value (shortened to “photo-response”) is given as “fast responses”, the “total irradiation time needed for the gel to begin to collapse (tinit)” value (“total irradiation time needed” below) worked out at 7 min and the “tinit(min): time needed” value came out at 7 min. For the same substance, the “pH (hydrogelation condition)” value in data set [1] (setting [8]) was determined as 1.2.

Consider Azo-Arg-Phe-Ala, for which the “T (° C.): temperature for gel” value in data set [2] came to 47 °C. Besides, the “tinit(min): time needed” value in data set [3] is on record as 8 min. Further, the “pH (hydrogelation condition)” value in data set [1] (setting [8]) turned out to be 1.6.

With Azo-Ser-Phe, the “pH (hydrogelation condition)” value in data set [1] (setting [7]) is 5.7.

As to Azo-Ser-Ala, the “pH (hydrogelation condition)” value in data set [1] (setting [7]) is “—”.

For the substance Azo-Ala-Tyr, the “salt effect on concentration required for hydrogelation” value (“salt effect on concentration required” for short) in data set [5] is “decreased the concentration required for hydrogelation”. In addition, the “pH (hydrogelation condition)” value in data set [1] (setting [7]) worked out at 5.1.

Azo-Phe-Ala: the “pH (hydrogelation condition)” value in data set [1] (setting [7]) stood at 7.8.

As to Azo-Phe-Tyr, the “pH (hydrogelation condition)” value in data set [1] (setting [7]) was 8.6.

As for Azo-Tyr-Tyr, in data set [5], the “salt effect on concentration required” value is reported as “decreased the concentration required for hydrogelation”. Moreover, in data set [1] (setting [7]), the “pH (hydrogelation condition)” value is 4.8.

Azo-Lys-D-Ala-D-Ala: the “compound in the cis-configuration” value in data set [6] (after UV irradiation for 2 minutes) was 11%; in data set [6] (after UV irradiation for 10 minutes) it was 51%.

With Azo-GAGAS, the “pH (to form a hydrogel)” value in data set [1] is listed as 3.9.

As for Azo-Glu-Tyr, the “salt effect on concentration required” value in data set [5] was “almost negligible”. The “pH (hydrogelation condition)” value in data set [1] (setting [7]) was determined as 4.8.

Consider Azo-Glu-Lys, for which, in data set [1] (setting [7]), the “pH (hydrogelation condition)” value is “—”.

Take Azo-Arg-Gln: in data set [1] (setting [7]), the “pH (hydrogelation condition)” value is listed as “—”.

Regarding Azo-IKVAV, in data set [1], the “pH (to form a hydrogel)” value worked out at 4.5.

Turning to Azo-Gln-Ala, the “pH (hydrogelation condition)” value in data set [1] (setting [7]) is given as 2.5.

Turning to Azo-Tyr-Ala, the “pH (hydrogelation condition)” value in data set [1] (setting [7]) came to 3.0.

Regarding Azo-Arg-Ala, the “pH (hydrogelation condition)” value in data set [1] (setting [7]) is “—”.

Take Azo-LGAGGAG (Azo-LGAGGAG-OH): the “pH (to form a hydrogel)” value in data set [1] is given as 1.6.

As for Azo-Gln-Tyr, the “pH (hydrogelation condition)” value in data set [1] (setting [7]) is 4.8.

Consider Azo-D-Lys-Phe-Ala, for which the “T (° C.): temperature for gel” value in data set [2] came to 39 °C. Also, the “tinit(min): time needed” value in data set [3] came to 4 min. Moreover, the “pH (hydrogelation condition)” value in data set [1] (setting [8]) stood at 1.4.

With Azo-Gln-Phe-Ala, the “T (° C.): temperature for gel” value in data set [2] was found to be 65 °C. Moreover, in data set [3], the “total irradiation time needed” value was not above 3 min and the “tinit(min): time needed” value was found to be 3 min. Besides, the “time to complete conversion of the hydrogel into a homogeneous non-viscous solution” value in data set [3] (UV light (365 nm), without external heating) is listed as “under 20 minutes”. Further, the “pH (hydrogelation condition)” value in data set [1] (setting [8]) stood at 7.8.

With Azo-Phe-Glu, the “pH (hydrogelation condition)” value in data set [1] (setting [7]) is listed as 2.1.

In the case of Azo-Leu-Phe-Ala, the “T (° C.): temperature for gel” value in data set [2] came to 71 °C. For the same substance, the “tinit(min): time needed” value in data set [3] came to 15 min. For the same substance, the “pH (hydrogelation condition)” value in data set [1] (setting [8]) turned out to be 8.6.

For Azo-Ser-Phe-Ala, the “T (° C.): temperature for gel” value in data set [2] turned out to be 54 °C. Moreover, the “tinit(min): time needed” value in data set [3] is listed as “—^d”. In data set [1] (setting [8]), the “pH (hydrogelation condition)” value is on record as 3.7.

Consider Azo-Glu-Tyr-Ala, for which, in data set [2], the “T (° C.): temperature for gel” value is 69 °C. For the same substance, the “tinit(min): time needed” value in data set [3] is reported as “—”. Also, the “pH (hydrogelation condition)” value in data set [1] (setting [8]) is on record as 3.0.

Consider Azo-Lys-Ala, for which the “pH (hydrogelation condition)” value in data set [1] (setting [7]) is “—”.

Turning to Azo-Glu-Phe-Ala, in data set [2], the “T (° C.): temperature for gel” value amounted to 85 °C. In data set [3], the “photo-response” value is “No photo-response was observed” and the “tinit(min): time needed” value was “—^d”. For the same substance, the “pH (hydrogelation condition)” value in data set [1] (setting [8]) is listed as 4.7.

In the case of Azo-Tyr-Lys, the “pH (hydrogelation condition)” value in data set [1] (setting [7]) is listed as 2.2.

With Azo-D-Lys-D-Phe-D-Ala, the “T (° C.): temperature for gel” value in data set [2] is 60 °C. Further, the “tinit(min): time needed” value in data set [3] was 15 min. In addition, in data set [1] (setting [8]), the “pH (hydrogelation condition)” value came to 1.6.

Turning to Azo-Phe-Phe, the “pH (hydrogelation condition)” value in data set [1] (setting [7]) amounted to 9.7.

Consider Azo-Arg-Phe, for which, in data set [1] (setting [7]), the “pH (hydrogelation condition)” value is “—”.

Take Azo-Glu-Ala: the “pH (hydrogelation condition)” value in data set [1] (setting [7]) stood at 2.4.

On to Azo-YSV, for which the “pH (to form a hydrogel)” value in data set [1] was 1.8.

For the substance Azo-Phe-Ser, the “pH (hydrogelation condition)” value in data set [1] (setting [7]) was determined as 2.0.

As for Azo-Gly-Phe-Ala, the “T (° C.): temperature for gel” value in data set [2] stood at 48 °C. In data set [3], the “photo-response” value is recorded as “fast responses”, the “total irradiation time needed” value turned out to be 5 min and the “tinit(min): time needed” value was 5 min. In addition, in data set [1] (setting [8]), the “pH (hydrogelation condition)” value is 7.5.

As for Azo-Lys-Phe-Ala, the “T (° C.): temperature for gel” value in data set [2] was 59 °C. Also, in data set [3], the “total irradiation time needed” value is 30 min and the “tinit(min): time needed” value is reported as 30 min. In data set [1] (setting [8]), the “pH (hydrogelation condition)” value was determined as 1.6.

For the origin of these results see patent US20130005833A1, “PHOTO-RESPONSIVE SUPRAMOLECULAR HYDROGELS” (priority 2011, published 2013).
